16 compounds from patent US10077261B2, “Imidazolin-5-one derivative useful as FASN inhibitors for the treatment of cancer” (Janssen Pharmaceutica NV, priority 2012, dated 2018) can be followed below.

Assay [1] has as its target T1, hFASN enzyme (full length) (Homo sapiens, UniProt P49327).
T1 construct: 10 μL hFASN enzyme (full length, 300 ng, purified in house); made in house
The experiment in a line: Fatty Acid Synthase (FASN) inhibition scintillation proximity assay. The assay is classed as biochemical. The settings on record: for inhibition at 10 µM: read-out: Human FASN % inhibition @ 10 μM, 10 μM test compound; for IC50: read-out: Human FASN pIC50 (converted). In a few lines: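 Proximity read-out: hydrophobic ^3H-palmitate formed from ^3H-acetyl-CoA and malonyl-CoA binds streptavidin imaging beads, imaged at 610±20 nm at least 24 h after stopping. Enzyme was in-house purified full-length hFASN, 300 ng, in pH 7.5 phosphate/DTT buffer; compound series 30 μM down to 0.01 μM, normalized to controls, 4-parameter fit.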

Assay [2] relates to A2780 ovarian cells. Nature of the assay: A2780 ovarian cell proliferation assay in lipid reduced medium, with palmitate (MTT). The format is cell-based. The settings on record: Homo sapiens, A2780, 96 h; read-out: pIC50 A2780 Ovarian Cell, With Palmitate (converted). As to the method: (§1) The biological assays described below correspond to comparative assays for ovarian cell proliferation. […] Compounds active in the absence of palmitate would not be expected to be active in the control.
(§2) 2500 cells were seeded in a 96-well clear well plate in 200 μL RPMI1640 with 10% Fetal Calf Serum (Hyclone), and incubated at 37° C., 5% CO2. Blanks were wells without cells. The next day the culture medium was aspirated and replaced by 160 μL culture medium with 10% Lipid-Reduced Serum (LRS, Hyclone). 20 μL test compound (at concentrations of 30 μM, 10 μM, 3 μM, 1 μM, 0.30 μM, 0.10 μM, 0.03 μM and 0.01 μM)/DMSO dilution followed by 20 μL palmitate-BSA solution were added to a final concentrations of 0.2% DMSO, 25 μM palmitate (Sigma, P0500, 10 mM stock solution in ethanol) 0.2% fatty-acid-free BSA, 0.25% ethanol. After 96 h incubation, an MTT assay was performed. The absorbance was measured at 544 nm on a SPECTRAMAX brand microplate reader (Molecular Devices).
A best fit curve was fitted by a minimum sum of squares method, plotting Controlmin versus test compound concentration.
(§3) Representative compounds of the present invention were tested according to the procedure as described in Biological Example 3 above, with results as listed in Table 8, below.

Assay [3] has as its system A2780 ovarian cells. Nature of the assay: A2780 ovarian cell proliferation assay in lipid reduced medium, without palmitate (MTT). The format is cell-based. The settings on record: Homo sapiens, A2780, 96 h; read-out: pIC50 A2780 Ovarian Cell, Without Palmitate (converted). As for the experimental part:
as §1
as §2, with “ethanol-BSA” for “palmitate-BSA”, “DMSO,” for “DMSO, 25 μM palmitate (Sigma, P0500, 10 mM stock solution in ethanol)”, “incubation” for “incubation,”
where mLC and mHC were the means of the low control wells and high control wells on the plate, after manual exclusion of outliers. A plot of Controlmin versus test compound concentration was fitted to a 4-parameter logistic curve using a non-linear least squares regression method.
as §3

T1 sequence (P49327 whole entry): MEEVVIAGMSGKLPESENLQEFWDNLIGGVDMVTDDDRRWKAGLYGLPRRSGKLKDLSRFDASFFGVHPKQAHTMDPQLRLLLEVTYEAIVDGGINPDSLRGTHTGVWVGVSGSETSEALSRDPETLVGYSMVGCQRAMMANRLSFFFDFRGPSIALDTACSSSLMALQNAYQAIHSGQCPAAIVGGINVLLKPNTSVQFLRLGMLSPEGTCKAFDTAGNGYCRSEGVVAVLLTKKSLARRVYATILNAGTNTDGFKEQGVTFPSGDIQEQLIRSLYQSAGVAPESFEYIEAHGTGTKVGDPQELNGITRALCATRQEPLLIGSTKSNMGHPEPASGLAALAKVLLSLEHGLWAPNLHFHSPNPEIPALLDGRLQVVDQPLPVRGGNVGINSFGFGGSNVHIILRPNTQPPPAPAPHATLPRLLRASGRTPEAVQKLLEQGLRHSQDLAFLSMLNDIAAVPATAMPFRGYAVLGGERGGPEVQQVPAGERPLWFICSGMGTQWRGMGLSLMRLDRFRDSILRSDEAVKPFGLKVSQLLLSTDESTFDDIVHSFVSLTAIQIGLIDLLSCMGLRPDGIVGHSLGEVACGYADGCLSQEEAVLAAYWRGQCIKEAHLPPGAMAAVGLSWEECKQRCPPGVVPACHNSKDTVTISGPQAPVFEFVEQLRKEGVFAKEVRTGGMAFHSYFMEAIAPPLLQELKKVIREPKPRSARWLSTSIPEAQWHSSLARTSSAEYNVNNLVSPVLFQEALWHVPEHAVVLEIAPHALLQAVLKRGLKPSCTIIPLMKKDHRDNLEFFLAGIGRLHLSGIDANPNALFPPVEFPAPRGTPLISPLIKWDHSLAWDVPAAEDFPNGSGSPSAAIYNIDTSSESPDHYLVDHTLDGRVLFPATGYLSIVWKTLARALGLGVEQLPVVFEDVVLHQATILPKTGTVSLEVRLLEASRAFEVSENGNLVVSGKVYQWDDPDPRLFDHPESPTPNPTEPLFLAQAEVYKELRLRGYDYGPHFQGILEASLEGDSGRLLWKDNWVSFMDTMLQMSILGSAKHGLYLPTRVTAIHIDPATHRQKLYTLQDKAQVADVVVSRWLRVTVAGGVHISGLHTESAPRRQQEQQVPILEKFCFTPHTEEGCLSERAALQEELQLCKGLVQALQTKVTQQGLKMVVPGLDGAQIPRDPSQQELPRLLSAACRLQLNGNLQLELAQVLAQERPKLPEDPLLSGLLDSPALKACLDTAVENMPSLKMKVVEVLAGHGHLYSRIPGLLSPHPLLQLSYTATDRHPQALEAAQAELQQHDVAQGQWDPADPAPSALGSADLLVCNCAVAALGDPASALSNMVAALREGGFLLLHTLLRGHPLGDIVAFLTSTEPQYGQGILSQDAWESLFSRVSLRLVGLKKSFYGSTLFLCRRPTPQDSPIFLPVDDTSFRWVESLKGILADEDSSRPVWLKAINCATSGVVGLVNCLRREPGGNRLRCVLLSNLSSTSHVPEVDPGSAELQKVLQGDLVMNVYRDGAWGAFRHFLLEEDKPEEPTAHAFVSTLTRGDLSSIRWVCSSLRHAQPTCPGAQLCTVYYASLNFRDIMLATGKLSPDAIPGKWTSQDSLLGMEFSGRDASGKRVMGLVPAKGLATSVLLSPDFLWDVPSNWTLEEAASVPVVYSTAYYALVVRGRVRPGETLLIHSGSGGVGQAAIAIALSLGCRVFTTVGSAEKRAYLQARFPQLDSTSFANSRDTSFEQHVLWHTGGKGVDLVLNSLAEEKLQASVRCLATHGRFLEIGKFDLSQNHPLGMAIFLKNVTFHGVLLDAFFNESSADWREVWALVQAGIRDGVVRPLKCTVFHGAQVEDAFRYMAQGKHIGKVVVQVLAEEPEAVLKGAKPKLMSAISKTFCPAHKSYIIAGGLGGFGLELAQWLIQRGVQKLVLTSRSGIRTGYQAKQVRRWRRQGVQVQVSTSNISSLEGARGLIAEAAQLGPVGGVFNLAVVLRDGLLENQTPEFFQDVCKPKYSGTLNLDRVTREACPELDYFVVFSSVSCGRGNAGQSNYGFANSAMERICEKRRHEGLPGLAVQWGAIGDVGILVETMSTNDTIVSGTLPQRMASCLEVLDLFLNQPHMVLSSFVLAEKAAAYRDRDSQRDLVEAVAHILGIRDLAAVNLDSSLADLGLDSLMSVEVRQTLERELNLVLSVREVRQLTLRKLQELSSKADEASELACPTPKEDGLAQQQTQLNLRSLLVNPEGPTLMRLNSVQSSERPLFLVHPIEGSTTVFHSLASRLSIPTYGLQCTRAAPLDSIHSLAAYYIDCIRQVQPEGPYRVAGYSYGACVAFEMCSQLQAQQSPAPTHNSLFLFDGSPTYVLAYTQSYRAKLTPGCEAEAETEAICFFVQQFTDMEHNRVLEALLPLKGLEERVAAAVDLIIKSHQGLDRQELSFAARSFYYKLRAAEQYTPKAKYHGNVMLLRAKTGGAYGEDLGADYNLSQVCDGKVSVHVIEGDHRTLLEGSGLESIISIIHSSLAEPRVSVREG

As to `O=C(C1CC1)N1CC[C@@H](CN2C(=O)C3(CC3)N=C2c2ccc(-c3ccc(O)cc3)cc2)C1` [compound 64, 6-{[(3R)-1-(Cyclopropylcarbonyl)pyrrolidin-3-yl]methyl}-5-(4′-hydroxybiphenyl-4-yl)-4,6-diazaspiro[2.4]hept-4-en-7-one], in assay [1], the inhibition at 10 µM was determined as 92.9%. For the same compound, the IC50 in assay [1] is 708 nM; in the assay with A2780 ovarian cells [2], over 10000 nM; in the assay on A2780 ovarian cells [3], 631 nM.

For `O=C(C1CC1)N1CC(CN2C(=O)C3(CCCC3)N=C2c2ccc(-c3ccc4[nH]ccc4c3)cc2)C1` [compound 78, 3-{[1-(Cyclopropylcarbonyl)azetidin-3-yl]methyl}-2-[4-(1H-indol-5-yl)phenyl]-1,3-diazaspiro[4.4]non-1-en-4-one], in assay [1], the inhibition at 10 µM was 111%. Also, the IC50 was over 10000 nM with A2780 ovarian cells [2] and 148 nM with A2780 ovarian cells [3].

In the case of `CC1(C(=O)N2CC[C@@H](CN3C(=O)C4(CCCC4)N=C3c3ccc(-c4ccc5occc5c4)cc3)C2)CC1` [compound 116, (R)-2-(4-(Benzofuran-5-yl)phenyl)-3-((1-(1-methylcyclopropanecarbonyl)pyrrolidin-3-yl)methyl)-1,3-diazaspiro[4.4]non-1-en-4-one], the inhibition at 10 µM in assay [1] was 121%. Besides, the values for the IC50 (in assay [1]; in the assay on A2780 ovarian cells [2]; in the assay on A2780 ovarian cells [3]) were 28.2 nM, about 3020 nM and 35.5 nM, respectively.

Consider `O=C(N1CCCC1)N1CC[C@@H](CN2C(=O)C3(CCCC3)N=C2c2ccc(-c3ccc4occc4c3)cc2)C1` [compound 117, 2-[4-(1-Benzofuran-5-yl)phenyl]-3-{[(3S)-1-(pyrrolidin-1-ylcarbonyl)pyrrolidin-3-yl]methyl}-1,3-diazaspiro[4.4]non-1-en-4-one], for which the inhibition at 10 µM in assay [1] came out at 108%. For the same compound, the IC50 is 204 nM in assay [1], 9120 nM in the assay on A2780 ovarian cells [2] and about 2400 nM with A2780 ovarian cells [3].

Regarding `Cn1ccc(C(=O)N2CC[C@@H](CN3C(=O)C4(CCCC4)N=C3c3ccc(-c4ccc5occc5c4)cc3)C2)n1` [compound 118, 2-[4-(1-Benzofuran-5-yl)phenyl]-3-({(3R)-1-[(1-methyl-1H-pyrazol-3-yl)carbonyl]pyrrolidin-3-yl}methyl)-1,3-diazaspiro[4.4]non-1-en-4-one], the inhibition at 10 µM in assay [1] is 101%. Also, the values for the IC50 (in assay [1]; in the assay on A2780 ovarian cells [2]; with A2780 ovarian cells [3]) were 355 nM, over 10000 nM and 1660 nM, respectively.

With `O=C(CC(F)(F)F)N1CC[C@@H](CN2C(=O)C3(CCCC3)N=C2c2ccc(-c3ccc4occc4c3)cc2)C1` [compound 119, 2-[4-(1-Benzofuran-5-yl)phenyl]-3-{[(3R)-1-(3,3,3-trifluoropropanoyl)pyrrolidin-3-yl]methyl}-1,3-diazaspiro[4.4]non-1-en-4-one], the inhibition at 10 µM in assay [1] worked out at 107%. Besides, the IC50 in assay [1] is 174 nM; with A2780 ovarian cells [2], 11000 nM; with A2780 ovarian cells [3] it was about 2240 nM.

In the case of `O=C(C1CC1)N1CC[C@@H](CN2C(=O)C3(CCCC3)N=C2c2ccc(-c3ccc4occc4c3)cc2F)C1` [compound 120, 2-[4-(1-Benzofuran-5-yl)-2-fluorophenyl]-3-{[(3R)-1-(cyclopropylcarbonyl)pyrrolidin-3-yl]methyl}-1,3-diazaspiro[4.4]non-1-en-4-one], the inhibition at 10 µM in assay [1] was 116%. Further, the IC50 is 38.9 nM in assay [1], 5010 nM with A2780 ovarian cells [2] and about 759 nM with A2780 ovarian cells [3].

As to `O=C(C1CC1)N1CC[C@@H](CN2C(=O)C3(CCCC3)N=C2c2ccc(-c3ccc(Cl)cc3)cc2F)C1` [compound 121, 2-(4′-Chloro-3-fluorobiphenyl-4-yl)-3-{[(3R)-1-(cyclopropylcarbonyl)pyrrolidin-3-yl]methyl}-1,3-diazaspiro[4.4]non-1-en-4-one], the inhibition at 10 µM in assay [1] was found to be 115%. The IC50 in assay [1] was 91.2 nM; with A2780 ovarian cells [2], over 10000 nM; in the assay with A2780 ovarian cells [3], 2190 nM.

Consider `O=C(C1CC1)N1CC[C@@H](CN2C(=O)C3(CC3)N=C2c2ccc(-c3ccc(-c4cccnc4)cc3)cc2)C1` [compound 122, 6-{[(3R)-1-(Cyclopropylcarbonyl)pyrrolidin-3-yl]methyl}-5-(4′-pyridin-3-ylbiphenyl-4-yl)-4,6-diazaspiro[2.4]hept-4-en-7-one], for which the inhibition at 10 µM in assay [1] is 112%. For the same compound, the IC50 was 123 nM in assay [1], about 10000 nM in the assay with A2780 ovarian cells [2] and 234 nM in the assay on A2780 ovarian cells [3].

As for `CN(C)c1ccc(-c2ccc(C3=NC4(CC4)C(=O)N3C[C@@H]3CCN(C(=O)C4CC4)C3)cc2)cc1` [compound 124, 6-{[(3R)-1-(Cyclopropylcarbonyl)pyrrolidin-3-yl]methyl}-5-[4′-(dimethylamino)biphenyl-4-yl]-4,6-diazaspiro[2.4]hept-4-en-7-one], in assay [1], the inhibition at 10 µM was found to be 113%. The IC50 in the assay with A2780 ovarian cells [2] is over 10000 nM; in the assay on A2780 ovarian cells [3] it was about 288 nM.

`O=C(C1CC1)N1CC[C@@H](CN2C(=O)C3(CC3)N=C2c2ccc(-c3cccc(C(F)(F)F)c3)cc2)C1` [compound 126, 6-{[(3R)-1-(Cyclopropylcarbonyl)pyrrolidin-3-yl]methyl}-5-[3′-(trifluoromethyl)biphenyl-4-yl]-4,6-diazaspiro[2.4]hept-4-en-7-one]: in assay [1], the inhibition at 10 µM was determined as 96.3%. In addition, the IC50 in assay [1] is 646 nM; in the assay with A2780 ovarian cells [2], over 10000 nM; in the assay with A2780 ovarian cells [3], over 10000 nM.

As for `Cn1ncc2cc(-c3ccc(C4=NC5(CCN(CCO)CC5)C(=O)N4C[C@@H]4CCN(C(=O)C5CC5)C4)cc3)ccc21` [compound 127, (R)-3-((1-(Cyclopropanecarbonyl)pyrrolidin-3-yl)methyl)-8-(2-hydroxyethyl)-2-(4-(1-methyl-1H-indazol-5-yl)phenyl)-1,3,8-triazaspiro[4.5]dec-1-en-4-one], the inhibition at 10 µM in assay [1] came out at 107%. In addition, the values for the IC50 (in assay [1]; in the assay on A2780 ovarian cells [2]; in the assay with A2780 ovarian cells [3]) were 490 nM, 7590 nM and 933 nM, respectively.

Take `O=C(C1CC1)N1CC[C@@H](CN2C(=O)C3(CCNCC3)N=C2c2ccc(-c3ccc4occc4c3)cc2)C1` [compound 133, 2-[4-(1-Benzofuran-5-yl)phenyl]-3-{[(3R)-1-(cyclopropylcarbonyl)pyrrolidin-3-yl]methyl}-1,3,8-triazaspiro[4.5]dec-1-en-4-one]: the inhibition at 10 µM in assay [1] is 99.1%. In addition, the IC50 was 447 nM in assay [1], over 10000 nM in the assay on A2780 ovarian cells [2] and about 3160 nM in the assay on A2780 ovarian cells [3].

Turning to `O=C(C1CC1)N1CCC2(CC1)N=C(c1ccc(-c3ccc4occc4c3)cc1)N(CC1CN(C(=O)C3CC3)C1)C2=O` [compound 134, 2-[4-(1-Benzofuran-5-yl)phenyl]-8-(cyclopropylcarbonyl)-3-{[1-(cyclopropylcarbonyl)azetidin-3-yl]methyl}-1,3,8-triazaspiro[4.5]dec-1-en-4-one], in assay [1], the inhibition at 10 µM is 91.7%. For the same compound, the IC50 in assay [1] was 562 nM; in the assay with A2780 ovarian cells [2], over 10000 nM; with A2780 ovarian cells [3] it was 4470 nM.

For `O=C(C1CC1)N1CC(CN2C(=O)C3(CC3)N=C2c2ccc(-c3ccc4ccc(=O)[nH]c4c3)cc2)C1` [compound 840], the IC50 with A2780 ovarian cells [2] and in the assay with A2780 ovarian cells [3] was over 3020 nM each time.

As for `N#CCCn1cc2cc(-c3ccc(C4=NC5(CC5)C(=O)N4CC4CN(C(=O)C5CC5)C4)cc3)ccc2n1` [compound 842, 3-(5-(4-(6-((1-(cyclopropanecarbonyl)azetidin-3-yl)methyl)-7-oxo-4,6-diazaspiro[2.4]hept-4-en-5-yl)phenyl)-2H-indazol-2-yl)propanenitrile], the IC50 in the assay on A2780 ovarian cells [2] and in the assay on A2780 ovarian cells [3] was over 3020 nM each time.

Broadly, the inhibition is the drop in the measured response relative to a control, in per cent.
